From publication PMC10349806 (Nature Communications, 2023)
Values joined by “and” are separate entries in the source; they are usually repeats but may differ in a detail not shown here. Equal values may be shown once.

Target: PfCRT^Dd2 (Plasmodium falciparum, UniProt Q9N623, A220S/I356T/K76T/M74I/N326S/N75E/Q271E/R371I)
Assay: Drug uptake assay, X. laevis oocytes expressing PfCRT^Dd2
Assay type: cell-based
Conditions: for v-1 pH 4.5 / v-1 pH 5.0 / v-1 pH 5.5 / v-1 pH 6.0: Lineweaver-Burk
Experimental: Oocytes were obtained as described previously. Briefly, adult (>2 years old) female X. laevis frogs (NASCO) were anesthetized in a cooled solution of ethyl 3-amino benzoate methanesulfonate (0.1%, w/v), followed by a surgical removal of parts of the ovary. The ovary lobes were carefully dissected and small pieces of oocytes were incubated in Ca^2+-free ND96 buffer (96 mM NaCl, 2 mM KCl, 1 mM MgCl2 buffered with 5 mM HEPES/NaOH, pH 7.5) supplemented with collagenase D (0.1%, w/v; Roche), BSA (0.5%, w/v), and 9 mm Na2HPO4 at 18 °C for 14-16 h while gentle shaking. After incubation, the oocytes were carefully washed several times with ND96 buffer (96 mM NaCl, 2 mM KCl, 1.8 mM CaCl2, 1 mM MgCl2 buffered with 5 mM HEPES/NaOH, pH 7.5) supplemented with 100 mg l^−1 gentamycin). Defolliculated and healthy-looking stage V-VI oocytes were manually selected for RNA microinjection. The RNA was generated as following: The codon-optimized sequences of PfCRT variants were cloned into the pSP64T expression vector. After vector linearization using the restriction endonucleases BamHI or SalI (New England Biolabs), transcription was performed using the in vitro SP6 mMessage mMachine Kit (Ambion)[34]. The obtained RNA was kept at −80 °C and diluted with nuclease-free water to a concentration of 0.6 μg μl^−1. Precision-bore glass capillary tubes (3.5-inch glass capillaries; Drummond Scientific Co.) were pulled on a vertical puller (P-87 Flaming/Brown micropipette puller, Sutter Instrument Co.), graduated, and placed on a microinjector (Nanoject II Auto-Nanoliter Injector, Drummond Scientific Co.). 50 nl of nuclease-free water alone (control oocytes) or 50 nl of 0.6 μg μl^−1 RNA were injected under stereomicroscopic control. Injected oocytes were incubated for 46–72 h at 18 °C with twice-daily buffer changes before usage in experiments.
Drug uptake assays were performed as described previously[21],[22],[24],[34]. […] The direction of radio-labeled drug transport is here from the mostly acidic extracellular solution (pH 4.5 or 6.0, as indicated) into the oocyte cytosol (pH ∼ 7.2), which corresponds to the efflux of drug from the acidic digestive vacuole (pH 5.2) into the parasite cytoplasm (pH 7.2). The topology of PfCRT in the oolemma is such that both the N- and C-terminus face the extracellular milieu[3],[22]. In the parasite, the N- and C-terminus face the lumen of the digestive vacuole. […] For determination of the amount of drug uptake for each oocyte, the reaction medium was removed and the oocytes were washed three times with 2 ml of ice-cold ND96 buffer. Each oocyte was individually transferred to a scintillation vial containing 5% sodium dodecyl sulfate (200 μl) for lysis. […] Oocytes that were injected with water instead of RNA were analyzed in parallel, representing the uptake of a drug by diffusion and/or endogenous permeation pathways. The resulting value represents the “background“ level of drug accumulation in oocytes (in-depth discussion in[22]). The specific PfCRT-mediated uptake was determined by subtracting the corresponding background value measured in water-injected oocytes from that of PfCRT-expressing oocytes. In all cases, at least three separate experiments were performed on oocytes from different frogs (biological replicate), and for each condition in an experiment, measurements were made from 10 oocytes per treatment. For pH 5.5, 6.0, and 6.5, ND96 was buffered with 5 mM MES/Tris base. For pH 4.5, 5 mM Homo-Pipes was used as a buffer and 5 mM HEPES for uptake at pH 7.0.

PfCRT^Dd2, sequence (Q9N623 whole entry A220S/I356T/K76T/M74I/N326S/N75E/Q271E/R371I): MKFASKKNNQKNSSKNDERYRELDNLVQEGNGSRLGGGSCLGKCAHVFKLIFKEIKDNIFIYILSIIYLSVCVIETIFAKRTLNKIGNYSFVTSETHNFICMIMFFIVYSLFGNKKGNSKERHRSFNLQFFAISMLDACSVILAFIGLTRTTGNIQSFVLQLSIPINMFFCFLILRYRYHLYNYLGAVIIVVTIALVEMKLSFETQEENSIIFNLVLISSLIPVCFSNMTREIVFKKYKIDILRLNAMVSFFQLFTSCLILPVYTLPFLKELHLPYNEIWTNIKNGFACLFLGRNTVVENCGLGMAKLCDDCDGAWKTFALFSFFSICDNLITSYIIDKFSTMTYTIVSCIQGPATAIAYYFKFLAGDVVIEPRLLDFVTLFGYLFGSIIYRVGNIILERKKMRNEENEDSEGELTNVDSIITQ

CCN(CC)CCCC(C)Nc1ccnc2cc(Cl)ccc12 (centres unmarked) [CQ, chloroquine]
PfCRTDd2 transport activity 10 µM CQ pH 4.5 (10 µM CQ, pH 4.5, individual replicates (Fig 4a)): 0.37 pmol oocyte-1 h-1 and 0.31 pmol oocyte-1 h-1 and 0.76 pmol oocyte-1 h-1 and 0.49 pmol oocyte-1 h-1
PfCRTDd2 transport activity (10 µM CQ, pH 5.0, 60 min): 0.54 pmol oocyte-1 h-1
PfCRTDd2 transport activity 10 µM CQ pH 5.0 (10 µM CQ, pH 5.0, individual replicates (Fig 4a)): 0.58 pmol oocyte-1 h-1 and 0.59 pmol oocyte-1 h-1 and 0.45 pmol oocyte-1 h-1
PfCRTDd2 transport activity (10 µM CQ, pH 5.5, 60 min): 0.69 pmol oocyte-1 h-1
PfCRTDd2 transport activity 10 µM CQ pH 5.5 (10 µM CQ, pH 5.5, individual replicates (Fig 4a)): 0.67 pmol oocyte-1 h-1 and 0.82 pmol oocyte-1 h-1 and 0.59 pmol oocyte-1 h-1 and 0.68 pmol oocyte-1 h-1
PfCRTDd2 transport activity (10 µM CQ, pH 6.0, 60 min): 0.94 pmol oocyte-1 h-1 and 0.95 pmol oocyte-1 h-1 and 0.80 pmol oocyte-1 h-1 and 1.08 pmol oocyte-1 h-1
PfCRTDd2 transport activity 10 µM CQ pH 6.0 (10 µM CQ, pH 6.0, individual replicates (Fig 4a)): 0.95 pmol oocyte-1 h-1 and 0.80 pmol oocyte-1 h-1 and 1.08 pmol oocyte-1 h-1
PfCRTDd2-mediated CQ transport activity (10 µM CQ, time 0 min): 0.00 pmol oocyte-1
PfCRTDd2-mediated CQ transport activity (10 µM CQ, time 30 min): 0.73 pmol oocyte-1
PfCRTDd2-mediated CQ transport activity (10 µM CQ, time 60 min): 1.10 pmol oocyte-1
PfCRTDd2-mediated CQ transport activity (10 µM CQ, time 90 min): 2.55 pmol oocyte-1
v-1 pH 4.5 (10 µM CQ): 2.08 (pmol oocyte-1 h-1)-1
v-1 pH 5.0 (10 µM CQ): 1.85 (pmol oocyte-1 h-1)-1
v-1 pH 5.5 (10 µM CQ): 1.45 (pmol oocyte-1 h-1)-1
v-1 pH 6.0 (10 µM CQ): 1.06 (pmol oocyte-1 h-1)-1
PfCRTDd2 transport activity 50 µM CQ pH 4.5 (50 µM CQ, pH 4.5, individual replicates (Fig 4a)): 0.97 pmol oocyte-1 h-1 and 2.03 pmol oocyte-1 h-1 and 1.14 pmol oocyte-1 h-1 and 1.28 pmol oocyte-1 h-1
PfCRTDd2 transport activity 50 µM CQ pH 5.0 (50 µM CQ, pH 5.0, individual replicates (Fig 4a)): 1.93 pmol oocyte-1 h-1 and 2.00 pmol oocyte-1 h-1 and 3.15 pmol oocyte-1 h-1 and 1.59 pmol oocyte-1 h-1 and 2.59 pmol oocyte-1 h-1 and 2.54 pmol oocyte-1 h-1 and 1.86 pmol oocyte-1 h-1 and 2.77 pmol oocyte-1 h-1 and 2.58 pmol oocyte-1 h-1 and 3.10 pmol oocyte-1 h-1
PfCRTDd2 transport activity 50 µM CQ pH 5.5 (50 µM CQ, pH 5.5, individual replicates (Fig 4a)): 2.14 pmol oocyte-1 h-1 and 3.86 pmol oocyte-1 h-1 and 4.54 pmol oocyte-1 h-1 and 3.39 pmol oocyte-1 h-1 and 3.66 pmol oocyte-1 h-1 and 1.74 pmol oocyte-1 h-1 and 6.45 pmol oocyte-1 h-1 and 4.72 pmol oocyte-1 h-1 and 2.44 pmol oocyte-1 h-1 and 3.17 pmol oocyte-1 h-1 and 4.57 pmol oocyte-1 h-1 and 4.41 pmol oocyte-1 h-1 and 3.78 pmol oocyte-1 h-1
PfCRTDd2 transport activity 50 µM CQ pH 6.0 (50 µM CQ, pH 6.0, individual replicates (Fig 4a)): 4.84 pmol oocyte-1 h-1 and 4.32 pmol oocyte-1 h-1 and 4.63 pmol oocyte-1 h-1
PfCRTDd2-mediated CQ transport activity (50 µM CQ, time 0 min): 0.00 pmol oocyte-1
PfCRTDd2-mediated CQ transport activity (50 µM CQ, time 30 min): 3.63 pmol oocyte-1
PfCRTDd2-mediated CQ transport activity (50 µM CQ, time 60 min): 5.55 pmol oocyte-1
PfCRTDd2-mediated CQ transport activity (50 µM CQ, time 90 min): 7.51 pmol oocyte-1
v-1 pH 4.5 (50 µM CQ): 0.52 (pmol oocyte-1 h-1)-1
v-1 pH 5.0 (50 µM CQ): 0.43 (pmol oocyte-1 h-1)-1
v-1 pH 5.5 (50 µM CQ): 0.27 (pmol oocyte-1 h-1)-1
v-1 pH 6.0 (50 µM CQ): 0.22 (pmol oocyte-1 h-1)-1
PfCRTDd2 transport activity (100 µM CQ, pH 4.5, 60 min): 5.17 pmol oocyte-1 h-1 and 4.60 pmol oocyte-1 h-1 and 5.99 pmol oocyte-1 h-1 and 5.32 pmol oocyte-1 h-1 and 4.77 pmol oocyte-1 h-1
PfCRTDd2 transport activity 100 µM CQ pH 4.5 (100 µM CQ, pH 4.5, individual replicates (Fig 4a)): 4.60 pmol oocyte-1 h-1 and 5.99 pmol oocyte-1 h-1 and 5.32 pmol oocyte-1 h-1 and 4.77 pmol oocyte-1 h-1
PfCRTDd2 transport activity (100 µM CQ, pH 5.0, 60 min): 5.48 pmol oocyte-1 h-1
PfCRTDd2 transport activity 100 µM CQ pH 5.0 (100 µM CQ, pH 5.0, individual replicates (Fig 4a)): 4.33 pmol oocyte-1 h-1 and 6.22 pmol oocyte-1 h-1 and 5.90 pmol oocyte-1 h-1
PfCRTDd2 transport activity (100 µM CQ, pH 5.5, 60 min): 7.61 pmol oocyte-1 h-1
PfCRTDd2 transport activity 100 µM CQ pH 5.5 (100 µM CQ, pH 5.5, individual replicates (Fig 4a)): 6.37 pmol oocyte-1 h-1 and 9.40 pmol oocyte-1 h-1 and 7.07 pmol oocyte-1 h-1
PfCRTDd2 transport activity (100 µM CQ, pH 6.0, 60 min): 9.42 pmol oocyte-1 h-1 and 10.41 pmol oocyte-1 h-1 and 9.48 pmol oocyte-1 h-1 and 8.36 pmol oocyte-1 h-1
PfCRTDd2 transport activity 100 µM CQ pH 6.0 (100 µM CQ, pH 6.0, individual replicates (Fig 4a)): 10.41 pmol oocyte-1 h-1 and 9.48 pmol oocyte-1 h-1 and 8.36 pmol oocyte-1 h-1
